Data taken from the supplement of paper PMC10307832.

compound: O=C(Nc1cc(C(F)(F)F)cc(C(F)(F)F)c1)c1cc(Cl)ccc1O [IMD-0354]; assay: relative viability (nuclei count vs DMSO), 5 days (fraction); higher = more cells survive; settings: 4 µM
In short: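 After an overnight hold at 37 °C, lung cancer cell lines in 1536-well plates were pinned with five library-drug doses (not always all listed), each √10 from the next, on vehicle-anchored plates. The cells stayed 5 days without fresh medium, then a one-step fix, permeabilisation and Hoechst stain preceded 4× imaging and MetaXpress nuclear counts. A plate passed only with control CV under 25% and at least one doubling. Viability is the median, over plates, of treated-well nuclei relative to vehicle-well nuclei.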

| Cell Line | relative viability |
| --- | --- |
| RERF-LC-KJ | 0.234 |
| ABC-1 | 0.259 |
| SK-MES-1 | 0.223 |
| NCI-H650 | 0.214 |
| PC-3 [JPC-3] | 0.306 |

compound: Cc1cnc(CNC(=O)c2c(=O)c3ccc(N4CCCN(C)CC4)nc3n3c2sc2ccccc23)cn1 [CX-5461] + CS(=O)(=O)N1CCN(Cc2cc3nc(-c4cccc5[nH]ncc45)nc(N4CCOCC4)c3s2)CC1 [Pictilisib] (partner 1 µM); assay: relative viability (nuclei count vs DMSO), 5 days (fraction); higher = more cells survive; settings: first compound 0.01 µM
In short: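 Relative viability divides the nuclei count in treated wells by that in vehicle wells. Lung cancer cell lines were seeded in 1536-well plates, dosed by pin tool the next day, and fixed and stained after 5 days in one step with final 0.05% Triton X-100, 1% formaldehyde and 1 ug/ml Hoechst. Dosing was a single drug or a fixed anchor-drug dose plus five library-drug doses (not always all listed) in √10 steps, and values are medians of duplicate plates imaged at 4×.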

| Cell Line | relative viability |
| --- | --- |
| 201T | 0.713 |
| NCI-H1915 | 0.966 |
| HCC-827 | 1.16 |
| LXF-289 | 0.789 |
| NCI-H23 | 0.449 |
| NCI-H1299 | 0.842 |
| NCI-H647 | 0.429 |
| CAL-12T | 0.384 |
| EPLC-272H | 0.306 |
| NCI-H2228 | 0.646 |
| NCI-H1792 | 0.294 |
| NCI-H1355 | 0.469 |
| NCI-H3122 | 0.558 |
| NCI-H1437 | 0.381 |
| NCI-H1755 | 0.463 |
| NCI-H2023 | 0.284 |
| HCC-15 | 0.753 |
| NCI-H1944 | 0.335 |
| PC-14 | 0.788 |
| EKVX | 0.47 |
| LC-2-ad | 0.431 |
| NCI-H1563 | 0.648 |
| NCI-H2170 | 0.368 |
| NCI-H1975 | 0.293 |
| RERF-LC-KJ | 0.466 |
| ABC-1 | 0.792 |
| SK-MES-1 | 0.391 |
| NCI-H650 | 0.858 |
| PC-3 [JPC-3] | 0.82 |

same assay, conditions: first compound 0.03162 µM

| Cell Line | relative viability |
| --- | --- |
| 201T | 0.748 |
| NCI-H1915 | 1.18 |
| HCC-827 | 0.912 |
| LXF-289 | 0.922 |
| NCI-H23 | 0.501 |
| NCI-H647 | 0.459 |
| CAL-12T | 0.386 |
| NCI-H1651 | 0.414 |
| EPLC-272H | 0.353 |
| NCI-H2228 | 0.425 |
| NCI-H1792 | 0.296 |
| NCI-H1355 | 0.433 |
| NCI-H3122 | 0.657 |
| NCI-H1437 | 0.471 |
| NCI-H1755 | 0.484 |
| NCI-H2023 | 0.257 |
| HCC-15 | 0.933 |
| NCI-H1944 | 0.371 |
| PC-14 | 1.05 |
| EKVX | 0.447 |
| LC-2-ad | 0.51 |
| NCI-H1563 | 0.662 |
| NCI-H2170 | 0.366 |
| NCI-H1975 | 0.274 |
| RERF-LC-KJ | 0.601 |
| ABC-1 | 1 |
| SK-MES-1 | 0.352 |
| NCI-H650 | 1.05 |
| PC-3 [JPC-3] | 0.857 |

same assay, conditions: first compound 0.1 µM

| Cell Line | relative viability |
| --- | --- |
| 201T | 0.753 |
| NCI-H1915 | 1.1 |
| HCC-827 | 1 |
| LXF-289 | 0.805 |
| NCI-H23 | 0.488 |
| NCI-H1299 | 0.768 |
| NCI-H647 | 0.426 |
| CAL-12T | 0.331 |
| EPLC-272H | 0.339 |
| NCI-H2228 | 0.255 |
| NCI-H1792 | 0.277 |
| NCI-H1355 | 0.493 |
| NCI-H3122 | 0.617 |
| NCI-H1755 | 0.446 |
| HCC-15 | 0.749 |
| NCI-H1944 | 0.332 |
| PC-14 | 0.972 |
| EKVX | 0.429 |
| LC-2-ad | 0.516 |
| NCI-H1563 | 0.637 |
| NCI-H2170 | 0.344 |
| NCI-H1975 | 0.274 |
| RERF-LC-KJ | 0.565 |
| SK-MES-1 | 0.402 |
| NCI-H650 | 0.889 |
| PC-3 [JPC-3] | 0.829 |

same assay, conditions: first compound 0.3162 µM

| Cell Line | relative viability |
| --- | --- |
| 201T | 0.708 |
| NCI-H1915 | 0.326 |
| HCC-827 | 0.87 |
| LXF-289 | 0.72 |
| NCI-H23 | 0.292 |
| NCI-H1299 | 0.799 |
| NCI-H647 | 0.136 |
| CAL-12T | 0.33 |
| NCI-H1651 | 0.489 |
| NCI-H2228 | 0.432 |
| NCI-H1792 | 0.276 |
| NCI-H1355 | 0.163 |
| NCI-H3122 | 0.533 |
| NCI-H1437 | 0.408 |
| NCI-H1755 | 0.301 |
| NCI-H2023 | 0.0857 |
| HCC-15 | 0.239 |
| PC-14 | 0.583 |
| LC-2-ad | 0.502 |
| NCI-H1563 | 0.624 |
| NCI-H2170 | 0.232 |
| NCI-H1975 | 0.315 |
| RERF-LC-KJ | 0.538 |
| ABC-1 | 0.289 |
| SK-MES-1 | 0.324 |
| NCI-H650 | 0.664 |
| PC-3 [JPC-3] | 0.697 |

same assay, conditions: first compound 1 µM

| Cell Line | relative viability |
| --- | --- |
| 201T | 0.721 |
| NCI-H1915 | 0.997 |
| HCC-827 | 1.12 |
| LXF-289 | 0.435 |
| NCI-H23 | 0.362 |
| NCI-H1299 | 0.545 |
| NCI-H647 | 0.28 |
| CAL-12T | 0.449 |
| NCI-H1651 | 0.105 |
| EPLC-272H | 0.335 |
| NCI-H2228 | 0.153 |
| NCI-H1792 | 0.281 |
| NCI-H1355 | 0.407 |
| NCI-H3122 | 0.608 |
| NCI-H1437 | 0.382 |
| NCI-H1755 | 0.383 |
| NCI-H2023 | 0.102 |
| HCC-15 | 0.495 |
| NCI-H1944 | 0.353 |
| PC-14 | 0.636 |
| EKVX | 0.389 |
| LC-2-ad | 0.334 |
| NCI-H1563 | 0.528 |
| NCI-H2170 | 0.379 |
| NCI-H1975 | 0.209 |
| RERF-LC-KJ | 0.5 |
| ABC-1 | 0.573 |
| SK-MES-1 | 0.333 |
| NCI-H650 | 0.731 |
| PC-3 [JPC-3] | 0.75 |
